Reference: patent publication US12358892B2, “Metalloenzyme inhibitors for treating cancers, Alzheimer's disease, hemochromatosis, and other disorders” (Miralogx LLC, priority 2020, dated 2025)

Columns and labels:
[1] = system: human primary endothelial cells; assay: BioMAP proliferation readout, endothelial cells; format: cell-based; details: 100 μM, 33 μM, 11 μM
Source text: (§1) The X-axis lists the quantitative protein-based biomarker readouts measured in each system. The Y-axis represents a log-transformed ratio of the biomarker readouts for the drug-treated sample (n=1) over vehicle controls (n≥6). The grey region around the Y-axis represents the 95% significance envelope generated from historical vehicle controls. Biomarker activities are annotated when two or more consecutive concentrations change in the same direction relative to vehicle controls, are outside of the significance envelope, and have at least one concentration with an effect size >20% (|log 10 ratio|>0.1). Biomarker key activities are described as modulated if these activities increase in some systems, but decrease in others. […] As summarized in Table 2 below, the compound was active with 35 annotated readouts. […]
(§2) Human primary cells in BioMAP® systems are used at early passage (passage 4 or earlier) to minimize adaptation to cell culture conditions and preserve physiological signaling responses. […] Test agents prepared in either DMSO (small molecules; final concentration ≤0.1%) or PBS (biologics) are added at the indicated concentrations 1-hr before stimulation, and remain in culture for 24-hrs or as otherwise indicated (48-hrs, MyoF system; 72-hrs, BT system (soluble readouts); 168-hrs, BT system (secreted IgG)). […]

[2] = system: T cells; assay: BioMAP proliferation readout, T cells; format: cell-based, human; details: 100 μM, 33 μM
Source text: as §1, §2

[3] = system: fibroblasts; assay: BioMAP proliferation readout, fibroblasts; format: cell-based, human; details: 100 μM
Source text: as §1, §2

C1=NC(c2cncc(C3CCC=N3)c2)CC1 (stereo not drawn) [3,5-bis(3,4-dihydro-2H-pyrrol-2-yl)pyridine]
antiproliferative: antiproliferative effect on human primary endothelial cells [1] | antiproliferative effect on T cells [2] | antiproliferative effect on fibroblasts [3]
